Experimental data: publication PMC2765170 (PLoS ONE, 2009)

Legend:
[1] = biological target: CoaE (M. tuberculosis dephosphocoenzyme A kinase, Rv1631) (Mycobacterium tuberculosis, UniProt P9WPA3); experiment: biochemical; type: binding; conditions: read-out: Ka (M^-1*104) (converted)
[2] = test system: Nc1ncnc2c1ncn2[C@@H]1O[C@H](COP(=O)(O)OP(=O)(O)OP(=O)(O)O)[C@@H](O)[C@H]1O; experiment: purified protein; conditions: co-substrate DCoA, MgCl2, 25°C
[3] = test system: Nc1ncnc2c1ncn2[C@H]1C[C@H](O)[C@@H](COP(=O)(O)OP(=O)(O)OP(=O)(O)O)O1; experiment: purified protein; conditions: alternate phosphate donor, co-substrate DCoA
[4] = test system: CC(C)(COP(=O)(O)OP(=O)(O)OC[C@H]1O[C@@H](n2cnc3c(N)ncnc32)[C@H](O)[C@@H]1O)[C@@H](O)C(=O)NCCC(=O)NCCS; experiment: purified protein; conditions: co-substrate ATP, MgCl2, 25°C

Chain of CoaE (M. tuberculosis dephosphocoenzyme A kinase, Rv1631) (P9WPA3 whole entry): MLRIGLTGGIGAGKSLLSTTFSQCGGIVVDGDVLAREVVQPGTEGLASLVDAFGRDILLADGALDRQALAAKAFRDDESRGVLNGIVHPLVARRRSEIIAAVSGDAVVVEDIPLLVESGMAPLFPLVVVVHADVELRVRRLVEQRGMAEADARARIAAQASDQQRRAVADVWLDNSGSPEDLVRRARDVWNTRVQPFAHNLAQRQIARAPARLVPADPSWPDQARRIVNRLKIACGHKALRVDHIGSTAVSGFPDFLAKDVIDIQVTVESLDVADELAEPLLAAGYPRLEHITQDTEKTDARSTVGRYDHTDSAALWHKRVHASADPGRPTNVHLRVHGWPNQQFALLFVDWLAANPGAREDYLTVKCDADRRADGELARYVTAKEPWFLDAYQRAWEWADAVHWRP

Row | Compound | Kd [1] | Km [2] | Km [3] | Km [4]
1 | Nc1ncnc2c1ncn2[C@@H]1O[C@H](COP(=O)(O)OP(=O)(O)O)[C@@H](O)[C@H]1O [ADP] | 49.3 µM |  |  | 
2 | Nc1ccn([C@@H]2O[C@H](COP(=O)(O)OP(=O)(O)OP(=O)(O)O)[C@@H](O)[C@H]2O)c(=O)n1 [CTP] | 62.9 µM |  |  | 
3 | Nc1ncnc2c1ncn2[C@H]1C[C@H](O)[C@@H](COP(=O)(O)OP(=O)(O)OP(=O)(O)O)O1 [dATP] | 57.5 µM |  |  | 
4 | CoaE (M. tuberculosis dephosphocoenzyme A kinase, Rv1631) (Mycobacterium tuberculosis H37Rv) |  | 56.8 µM | 320 µM | 34.9 µM
